According to US9487502B2, “Chemical compounds” (Syngenta Limited, priority 2013, dated 2016):

How the values were obtained:
Assay type in all cases: in vivo
Design in all cases: key: 5=total damage to plant; 0=no damage to plant
Zea mays [1] = test: Post-emergence herbicidal activity, ZEAMX; conditions: 1000 g/Ha, sprayed post-emergence (8 days cultivation), evaluated after 13 days, scale 0-5
Method: (§1) Seeds of a variety of test species were sown in standard soil in pots. After 8 days cultivation (post-emergence) under controlled conditions in a glasshouse (at 24/16° C., day/night; 14 hours light; 65% humidity), the plants were sprayed with an aqueous spray solution derived from the formulation of the technical active ingredient in acetone/water (50:50) solution containing 0.5% Tween 20 (polyoxyethelyene sorbitan monolaurate, CAS RN 9005-64-5). The test plants were then grown in a glasshouse under controlled conditions (at 24/16° C., day/night; 14 hours light; 65% humidity) and watered twice daily. After 13 days, the test was evaluated (5=total damage to plant; 0=no damage to plant).

Abutilon theophrasti [2] = test: Post-emergence herbicidal activity, ABUTH; conditions: 1000 g/Ha, sprayed post-emergence (8 days cultivation), evaluated after 13 days, scale 0-5
Method: as §1

Setaria faberi [3] = test: Post-emergence herbicidal activity, SETFA; conditions: 1000 g/Ha, sprayed post-emergence (8 days cultivation), evaluated after 13 days, scale 0-5
Method: as §1

Echinochloa crus-galli [4] = test: Pre-emergence herbicidal activity, ECHCG; conditions: 1000 g/Ha, sprayed pre-emergence, evaluated after 13 days, scale 0-5
Method: as §1, with “After” for “After 8 days”, “for one day (pre-emergence)” for “(post-emergence)”

Alopecurus myosuroides [5] = test: Pre-emergence herbicidal activity, ALOMY; conditions: 1000 g/Ha, sprayed pre-emergence, evaluated after 13 days, scale 0-5
Method: as §1, with “After” for “After 8 days”, “for one day (pre-emergence)” for “(post-emergence)”

Amaranthus retroflexus [6] = test: Post-emergence herbicidal activity, AMARE; conditions: 1000 g/Ha, sprayed post-emergence (8 days cultivation), evaluated after 13 days, scale 0-5
Method: as §1

Amaranthus retroflexus [7] = test: Pre-emergence herbicidal activity, AMARE; conditions: 1000 g/Ha, sprayed pre-emergence, evaluated after 13 days, scale 0-5
Method: as §1, with “After” for “After 8 days”, “for one day (pre-emergence)” for “(post-emergence)”

Echinochloa crus-galli [8] = test: Post-emergence herbicidal activity, ECHCG; conditions: 1000 g/Ha, sprayed post-emergence (8 days cultivation), evaluated after 13 days, scale 0-5
Method: as §1

Alopecurus myosuroides [9] = test: Post-emergence herbicidal activity, ALOMY; conditions: 1000 g/Ha, sprayed post-emergence (8 days cultivation), evaluated after 13 days, scale 0-5
Method: as §1

Abutilon theophrasti [10] = test: Pre-emergence herbicidal activity, ABUTH; conditions: 1000 g/Ha, sprayed pre-emergence, evaluated after 13 days, scale 0-5
Method: as §1, with “After” for “After 8 days”, “for one day (pre-emergence)” for “(post-emergence)”

Setaria faberi [11] = test: Pre-emergence herbicidal activity, SETFA; conditions: 1000 g/Ha, sprayed pre-emergence, evaluated after 13 days, scale 0-5
Method: as §1, with “After” for “After 8 days”, “for one day (pre-emergence)” for “(post-emergence)”

Zea mays [12] = test: Pre-emergence herbicidal activity, ZEAMX; conditions: 1000 g/Ha, sprayed pre-emergence, evaluated after 13 days, scale 0-5
Method: as §1, with “After” for “After 8 days”, “for one day (pre-emergence)” for “(post-emergence)”

| SMILES | ZEAMX damage score, application post-emergence (Zea mays [1]) | ABUTH damage score, application post-emergence (Abutilon theophrasti [2]) | SETFA damage score, application post-emergence (Setaria faberi [3]) | ECHCG damage score, application pre-emergence (Echinochloa crus-galli [4]) | ALOMY damage score, application pre-emergence (Alopecurus myosuroides [5]) | AMARE damage score, application post-emergence (Amaranthus retroflexus [6]) | AMARE damage score, application pre-emergence (Amaranthus retroflexus [7]) | ECHCG damage score, application post-emergence (Echinochloa crus-galli [8]) | ALOMY damage score, application post-emergence (Alopecurus myosuroides [9]) | ABUTH damage score, application pre-emergence (Abutilon theophrasti [10]) | SETFA damage score, application pre-emergence (Setaria faberi [11]) | ZEAMX damage score, application pre-emergence (Zea mays [12]) |
| --- | --- | --- | --- | --- | --- | --- | --- | --- | --- | --- | --- | --- |
| CCN1C(=O)N(c2cc(C(C)(C)C)ncn2)C(O)C1OC (stereo not drawn) [Example A26] | 1 | 1 | 2 | 0 | 0 | 0 | 1 | 0 | 1 | 2 | 0 | 1 |
| CCOC1C(O)N(c2cc(C(C)(C)C)ncn2)C(=O)N1CC (stereo not drawn) [Example A27] | 2 | 4 | 3 | 0 | 0 | 0 | 1 | 0 | 1 | 1 | 0 | 0 |
| CCCOC1C(OCCC)N(c2cc(C(C)(C)C)ncn2)C(=O)N1C (stereo not drawn) [Example A28] | 0 | 0 | 0 | 0 | 0 | 0 | 0 | 0 | 0 | 0 | 0 | 0 |
| C=CC1C(O)N(c2cc(C(C)(C)C)ncn2)C(=O)N1C (stereo not drawn) [Example A29] | 1 | 5 | 5 | 4 | 4 | 5 | 5 | 4 | 4 | 5 | 4 | 1 |
| COCC1NC(=O)N(c2cc(C(C)(C)C)ncn2)C1O (stereo not drawn) [Example A30] | 1 | 5 | 4 | 4 | 4 | 5 | 5 | 3 | 4 | 5 | 4 | 1 |
| CN1C(=O)N(c2cc(C(C)(C)C)ncn2)C(O)C1C(F)(F)F (stereo not drawn) [Example A31] | 1 | 5 | 5 | 3 | 3 | 1 | 2 | 3 | 4 | 2 | 4 | 0 |
| CC1NC(=O)N(c2cc(C(C)(C)C)ncn2)C1O (stereo not drawn) [Example A32] | 1 | 5 | 2 | 1 | 1 | 2 | 2 | 2 | 3 | 3 | 1 | 0 |
| CN1C(=O)N(c2cc(C(C)(C)C)ncn2)C(O)C1CC(F)(F)F (stereo not drawn) [Example A34] | 2 | 5 | 3 | 1 | 1 | 2 | 5 | 0 | 3 | 4 | 2 | 0 |
| CC1C(OC(=O)Nc2ccc([N+](=O)[O-])cc2)N(c2cc(C(C)(C)C)ncn2)C(=O)N1C (stereo not drawn) [Example A36] | 5 | 5 | 5 | 4 | 4 | 5 | 5 | 5 | 5 | 5 | 4 | 3 |
